Reference: patent US11503829B2, “Pesticidal compositions and related methods” (CJB Applied Technologies, LLC, priority 2020, dated 2022)
Read-outs that look alike come from different tables or passages of the source.

Legend:
[1] = test system: natural population of lowland brush; assay: Woody brush control with Metsulfuron Methyl; settings: MSM 1/5 oz/gal, no adjuvant; scale 1-5
[2] = test system: black rust (Puccinia graminis tritici); assay type: in vivo; settings: wheat, tebuconazole 2 fl oz/acre, no adjuvant, 21 days after treatment
[3] = test system: Didymella fungus that is resistant to azoxystrobin; assay: Petri dish radial growth bioassay, agar impregnated with Quadris and/or benzyl alcohol; assay type: cell-based
[4] = Quadris 0 oz/ac, Benzyl Alcohol 6 oz/ac

## COC(=O)c1ccccc1S(=O)(=O)NC(=O)Nc1nc(C)nc(OC)n1 [MSM Alone]
[1]
  Observation at 28 DAT: 2.0

## CC(C)(C)C(O)(CCc1ccc(Cl)cc1)Cn1cncn1 (stereo not shown) [Teb only, tebuconazole]
[2]; mix water 35° F.
  Disease Severity Rating: 51.3
[2]; mix water 70° F.
  Disease Severity Rating: 47

## OCc1ccccc1 [Benzyl Alcohol only, benzyl alcohol]
[3]; [4]
  Radial growth, 24 Hours: 4.83
  Radial growth, 48 Hours: 8.42
  Radial growth, 72 Hours: 8.7
  Radial growth, 96 Hours: 13.98
  Radial growth, 120 Hours: 18.72
  Radial growth, 144 Hours: 25.05
[3]; benzyl alcohol alone, petri dish
  Reduction in fungal growth (observation): no reduction in fungal growth
